One test has as its target T1, Human Calpain I (Homo sapiens, UniProt P07384).
T1 construct: Calpain I was purified from human erythrocytes; from tissue; host or cells: human erythrocytes
T1 sequence (P07384 1-714): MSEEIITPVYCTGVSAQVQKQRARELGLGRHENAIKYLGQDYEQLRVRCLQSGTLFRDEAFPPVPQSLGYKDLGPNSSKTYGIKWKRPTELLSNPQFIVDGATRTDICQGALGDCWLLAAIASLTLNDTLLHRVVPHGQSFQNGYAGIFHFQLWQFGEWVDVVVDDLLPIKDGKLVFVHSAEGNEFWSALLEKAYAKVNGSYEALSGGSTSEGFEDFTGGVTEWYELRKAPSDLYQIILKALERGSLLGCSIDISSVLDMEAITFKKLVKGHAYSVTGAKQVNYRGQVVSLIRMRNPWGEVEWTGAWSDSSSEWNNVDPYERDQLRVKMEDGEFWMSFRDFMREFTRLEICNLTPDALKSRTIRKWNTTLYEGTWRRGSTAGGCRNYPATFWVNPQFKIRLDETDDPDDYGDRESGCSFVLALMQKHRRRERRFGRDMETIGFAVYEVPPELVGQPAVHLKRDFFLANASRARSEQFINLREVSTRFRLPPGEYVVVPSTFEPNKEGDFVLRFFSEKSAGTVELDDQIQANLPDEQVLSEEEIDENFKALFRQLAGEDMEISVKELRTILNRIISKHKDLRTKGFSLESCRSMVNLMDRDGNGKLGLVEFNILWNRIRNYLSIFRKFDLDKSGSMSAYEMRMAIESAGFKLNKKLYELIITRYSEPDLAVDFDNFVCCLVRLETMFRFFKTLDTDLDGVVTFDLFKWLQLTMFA
T1 sequence (P04632 1-268 partner): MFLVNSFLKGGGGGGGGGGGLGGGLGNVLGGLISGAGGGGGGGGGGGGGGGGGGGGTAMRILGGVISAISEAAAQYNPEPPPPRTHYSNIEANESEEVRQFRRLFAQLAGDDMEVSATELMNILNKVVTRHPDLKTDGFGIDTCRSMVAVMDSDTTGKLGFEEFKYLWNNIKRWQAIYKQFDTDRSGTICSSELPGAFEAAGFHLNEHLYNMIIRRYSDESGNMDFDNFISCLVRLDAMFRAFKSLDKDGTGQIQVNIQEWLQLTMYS
As to the kind of experiment: Calpain I activity, casein substrate, Coomassie microplate assay. To be noted: for IC50: casein 0.5 mg/mL, pH 7.4, 25° C., 60 minutes (Table I). Type of test: biochemical. The protocol:
(§1) Assay of calpain activity: Calpain I was purified from human erythrocytes as described by Wang K K W, Roufogalis B D, and Villalobo A, Arch Biochem Biophys 1988;267: 317-327. Calpain activity was assayed in a 96-well microplate format (Buroker-Kilgore M and Wang K K W, Anal Bio Chem 1993;208: 387-392). In 250 μL of reaction mixture, substrate casein (0.5 mg/mL) was incubated with 0.01 unit (80-120 ng) calpain I, 20 mM dithiothreitol (DTT), 50 mM Tris-HCl (pH 7.4 at 25° C.) and 4 mM CaCl2 at 25° C. for 60 minutes. Two 100-μL aliquots were taken for Coomassie blue G250 binding analysis to quantify the remaining casein.
(§2) Compound concentrations that cause 50% inhibition (IC50) are as shown (Table I). The second rate of inactivation of calpain I for 2 compounds are also shown.
(§3) Selectivity of α-substituted Hydrazides: Calpain I and II were assayed as described in Example 1. One to 2 ng papain (papaya latex, Sigma, P3125), 1.25 μg trypsin (bovine pancreas, Sigma, T8003), 5 μg thermolysin (Bacillus thermoproteolyticus, Sigma, P1512) were assayed using 0.5 mg/mL casein as substrate in the microplate format (250 μL reaction volume), essentially a described by Buroker-Kilgore, M. and Wang K K W, Anal Biochem 1993;208: 387-392. Cathepsin B (0.002 unit, bovine spleen) was assayed with 50 mM MES (pH 5.5), 100 μM carbobenzoxy-Arg-Arg-4-methoxy-beta-naphthlamide (Cbz-Arg-Arg-MNA), inhibitor, and 2 mM DTT in 200 μL for 60 minutes at room temperature. Fifty-microliter aliquots were transferred to a fluorescence-compatible plate and then read with a Perkin-Elmer fluorometer LS-50B (excitation 340 nm and emission 425 nm). Calcineurin (bovine brain, Sigma) (5 μg, 0.8 unit) was assayed with 10 mM p-nitrophenyl phosphate in 1 mM DTT, 1 mM CaCl2, 1 mM MnCl2, […] calmodulin (CaM, if added), and 50 mM Tris-HCl (pH 7.4) at 25° C. for 60 minutes or more. Production of p-nitrophenol was monitored at 405 nm. Inhibition of these proteases are presented as IC50.

The next test addresses T2, Human Calpain II (Homo sapiens, UniProt P17655).
T2 sequence (P17655 1-700): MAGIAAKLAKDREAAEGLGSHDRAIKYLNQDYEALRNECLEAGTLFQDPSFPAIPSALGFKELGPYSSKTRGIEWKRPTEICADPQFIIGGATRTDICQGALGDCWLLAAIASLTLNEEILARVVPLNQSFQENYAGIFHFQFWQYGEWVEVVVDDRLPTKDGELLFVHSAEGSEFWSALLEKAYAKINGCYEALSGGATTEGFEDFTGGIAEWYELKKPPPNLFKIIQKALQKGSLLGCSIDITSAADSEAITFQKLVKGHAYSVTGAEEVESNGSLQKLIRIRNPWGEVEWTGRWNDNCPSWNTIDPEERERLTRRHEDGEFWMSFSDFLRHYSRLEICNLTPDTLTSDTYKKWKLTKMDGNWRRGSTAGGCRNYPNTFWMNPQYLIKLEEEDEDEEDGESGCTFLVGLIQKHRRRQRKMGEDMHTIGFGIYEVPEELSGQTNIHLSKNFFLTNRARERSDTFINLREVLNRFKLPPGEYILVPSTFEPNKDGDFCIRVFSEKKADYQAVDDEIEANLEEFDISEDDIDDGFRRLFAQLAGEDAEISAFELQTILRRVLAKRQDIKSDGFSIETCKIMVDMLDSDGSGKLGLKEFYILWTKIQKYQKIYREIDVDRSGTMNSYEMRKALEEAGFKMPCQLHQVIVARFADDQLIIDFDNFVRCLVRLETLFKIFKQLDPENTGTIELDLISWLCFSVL
T2 sequence (P04632 1-268 partner): T1 sequence (P04632 1-268 partner)
As to the kind of experiment: Calpain II activity, casein substrate, Coomassie microplate assay. Type of test: biochemical. The following applies: casein 0.5 mg/mL (Table I). The protocol:
as §1, §2, §3

Test [1] deals with Spectrin Breakdown in Human Leukemic Molt-4 cells. As to the kind of experiment: Cell-based calpain assay: spectrin breakdown in Molt-4 cells treated with calcium ionophore A23187. To be noted: 1 hour preincubation, 15 μM A23187, 90 minutes, read-out: IC50 for inhibition of spectrin breakdown (145 kD fragment formation). The protocol: Calpain inhibitor was added to the wells if desired and preincubated for 1 hour. […] The cells were then lysed with 2% (w/v) SDS, 5 mM EGTA, 5 mM EDTA, 150 mM NaCl, 0.5 mM PMSF, 10 μg/mL AEBSF, 5 μg/mL leupeptin, 10 μg/mL pepstatin, 10 μg/mL TLCK, 10 μg/mL TPCK, and 20 mM Tris-HCl (pH 7.4) at room temperature for 5 to 10 minutes. One hundred microliters of 100% (w/v) TCA was added and total protein precipitate was collected by microcentrifugation. The final pellets were neutralized with Tris base. Protein samples (50 μg) were run on SDS-PAGE with the Tris-glycine running buffer system and transferred onto a PVDF membrane. The blots were probed with an anti-spectrin (nonerythroid) antibody and a second antibody with alkaline phosphatase conjugate. The blots were developed with nitro blue tetrazolium and 5-bromo-4-chloro-3-indolyl-phosphate.

The subject of a further test is restenosis. To be noted: in vivo; cited from earlier work.
The subject of a further test is ischemic neocortex. To be noted: applied directly to the surfaces of ischemic neocortex; cited from earlier work.
Test [2] deals with acute myocardiac infraction in dogs. To be noted: coronary reperfusion after acute myocardiac infraction; cited from earlier work.
In a further test the test system is aggregin. To be noted: cited from earlier work.
In another test the test system is platelet. The following applies: cited from earlier work.
Another test has as its system cataract. To be noted: whole animal; cited from earlier work.

We go through eight molecules from patent US5679680A, “α-substituted hydrazides having calpain inhibitory activity” (Warner-Lambert Company, priority 1995, dated 1997).

What is called IC50 is the concentration needed to halve the response being measured.

Square brackets hold non-standard residues; d marks the D form. Ends that are not written are not given here. Peptide text beside a SMILES is read from it. Nle = CCCC[C@H](N)C(=O)O

As for `O=C(CBr)NN=c1[nH]c2ccccc2n(-c2ccccc2)c1=O` [Example 4, 2-Bromo-acetic acid (3-oxo-4-phenyl-3,4-dihydro-1H-quinoxalin-2-ylidene)-hydrazide], the IC50 on Human Calpain I was 0.697 µM; at Human Calpain II, 0.574 µM; in [1], 25 µM. `CCCC[C@@H](C=O)NC(=O)[C@H](CC(C)C)NC(=O)[C@H](CC(C)C)NC(C)=O` [calpain inhibitor I] (Ac-Leu-Leu-[Nle]-aldehyde): the Restenosis entry with restenosis was “can inhibit restenosis”. For the molecule `CCNC(=O)C(=O)C(CC)NC(=O)C(CC(C)C)NC(=O)OCc1ccccc1` (stereo not drawn) [AK275], the “Size of the expected infarct” value with ischemic neocortex is “dramatically and unequivocally reduce the size of the expected infarct”.

Take `O=C(CCl)NN=c1[nH]c2ccccc2n(-c2ccc(Cl)cc2)c1=O` [Example 9, 2-Chloro-acetic acid [4-(4-chloro-phenyl)-3-oxo-3,4-dihydro-1H-quinoxalin-2-ylidene]-hydrazide]: the “Ki/[I] Calpain I (second rate of inactivation)” value on Human Calpain I turned out to be 63.7 M⁻¹ s⁻¹. Also, the IC50 at Human Calpain I stood at 0.486 µM; at Human Calpain II, 0.158 µM; in test [1], 15 µM.

`Cn1c(=O)c(=NNC(=O)CCl)[nH]c2ccccc21` [Example 14, 2-Chloro-acetic acid (4-methyl-3-oxo-3,4-dihydro-1H-quinoxalin-3-ylidene)-hydrazide]: the IC50 against Human Calpain I was 8.28 µM; against Human Calpain II, 10.8 µM. With `CC(C)CCNC(=O)[C@H](CC(C)C)NC(=O)[C@H]1O[C@@H]1C(=O)O` [Example E64c], the Size of infarct entry in test [2] is given as “significantly reduce the size of infract”. Regarding “Phe-Gln-Val-Val-Cys(3-nitro-2-thiopyridine)-Gly-NH2 (FQVVC(3‑nitro‑2‑thiopyridine)G-NH2)”, the Aggregin breakdown result with aggregin is “blocked aggregin breakdown”. For the same molecule, the Platelet aggregation entry in the test on platelet was “blocked aggregin breakdown and platelet aggregation”. For the molecule `CC(C)C[C@H](NC(=O)[C@H]1O[C@@H]1C(=O)O)C(=O)NCCCCN=C(N)N` [Example E64], the “Rate of cataract formation” value with cataract is given as “reduce the rate of cataract formation”.
